{"source": "patent US20200338084A1", "about": "“INHIBITORS OF LOW MOLECULAR WEIGHT PROTEIN TYROSINE PHOSPHATASE (LMPTP) AND USES THEREOF” (Sanford Burnham Prebys Medical Discovery Institute, priority 2018, published 2020)", "target": "T1, human LMPTP-A (Homo sapiens, UniProt P24666)", "T1 sequence (P24666 1-158)": "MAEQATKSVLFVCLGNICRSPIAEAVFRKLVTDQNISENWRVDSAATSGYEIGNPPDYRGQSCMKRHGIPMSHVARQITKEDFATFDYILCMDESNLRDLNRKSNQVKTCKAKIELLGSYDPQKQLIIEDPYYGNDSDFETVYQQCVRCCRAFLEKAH", "test": "Enzyme Assay of Inhibition of LMPTP-A", "format": "biochemical", "details": "phosphatase assay, OMFP or pNPP substrate, 50 mM Bis-Tris pH 6.0, 37° C.", "experimental": "Phosphatase assays were performed in buffer containing 50 mM Bis-Tris, pH 6.0, 1 mM DTT and 0.01% Triton X-100 at 37° C. For assays conducted with 3-O-methylfluorescein phosphate (OMFP) as substrate, fluorescence was monitored continuously at λex=485 and λem=525 nm. For assays conducted with para-nitrophenylphosphate (pNPP) as substrate, the reaction was stopped by addition of 2× reaction volume of 1 M NaOH, and absorbance was measured at 405 nm. IC50 values of compounds disclosed herein were determined from plots of inhibitor concentration versus percentage of enzyme activity. For inhibitor selectivity assays, each PTP was incubated with either 0.4 mM OMFP or 5 mM pNPP in the presence of 40 μM compound or DMSO. […] For the inhibitor reversibility assay, 50 nM human LMPTP-A was pre-incubated with 10 μM of compound disclosed herein or DMSO for 5 min. The enzyme was diluted 100× in phosphatase assay buffer containing 0.4 mM OMFP and fluorescence was measured at the indicated time points.", "note": "pIC50: −log10 of the molar value.", "data": [{"smiles": "CC(c1ccccc1)c1nc2c(N)ncn(Cc3c(Cl)cccc3Cl)c-2n1", "note": "(stereo not shown) [3-[(2,6-Dichlorophenyl)methyl]-8-(phenylethyl)-3-hydropurine-6-ylamine]", "values": [{"measurement": "pIC50", "value": "≥ 6.00"}]}, {"smiles": "Nc1ncn(Cc2c(Cl)cccc2Cl)c2nc(Cc3ccc(Br)cc3)nc1-2", "note": "[3-[(2,6-Dichlorophenyl)methyl]-8-[(4-bromophenyl)methyl]-3-hydropurine-6-ylamine]", "values": [{"measurement": "pIC50", "value": "≥ 6.00"}]}, {"smiles": "Nc1ncn(Cc2c(Cl)cccc2Cl)c2nc(Cc3ccccc3)nc1-2", "note": "[3-[(2,6-Dichlorophenyl)methyl]-8-benzyl-3-hydropurine-6-ylamine]", "values": [{"measurement": "pIC50", "value": "≥ 6.00"}]}, {"smiles": "Nc1ncn(Cc2c(Cl)cccc2Cl)c2nc(Br)nc1-2", "note": "[3-[(2,6-Dichlorophenyl)methyl]-8-bromo-3-hydropurine-6-ylamine]", "values": [{"measurement": "pIC50", "value": "4.70 to 6.00"}]}, {"smiles": "Nc1ncn(Cc2c(Cl)cccc2Cl)c2nc(Cl)nc1-2", "note": "[3-[(2,6-Dichlorophenyl)methyl]-8-chloro-3-hydropurine-6-ylamine]", "values": [{"measurement": "pIC50", "value": "≤ 4.70"}]}, {"smiles": "Nc1ncn(Cc2c(Cl)cccc2Cl)c2nc(C3CCC3)nc1-2", "note": "[3-[(2,6-Dichlorophenyl)methyl]-8-cyclobutyl-3-hydropurine-6-ylamine]", "values": [{"measurement": "pIC50", "value": "≥ 6.00"}]}, {"smiles": "Nc1ncn(Cc2c(Cl)cccc2Cl)c2nc(C3=CCCCC3)nc1-2", "note": "[3-[(2,6-Dichlorophenyl)methyl]-8-cyclohex-1-enyl-3-hydropurine-6-ylamine]", "values": [{"measurement": "pIC50", "value": "≥ 6.00"}]}, {"smiles": "Nc1ncn(Cc2c(Cl)cccc2Cl)c2nc(C3CCCCC3)nc1-2", "note": "[3-[(2,6-Dichlorophenyl)methyl]-8-cyclohexyl-3-hydropurine-6-ylamine]", "values": [{"measurement": "pIC50", "value": "≥ 6.00"}]}, {"smiles": "CCCCCCc1nc2c(N)ncn(Cc3c(Cl)cccc3Cl)c-2n1", "note": "[3-[(2,6-Dichlorophenyl)methyl]-8-hexyl-3-hydropurine-6-ylamine]", "values": [{"measurement": "pIC50", "value": "≥ 6.00"}]}, {"smiles": "Cc1nc2c(N)ncn(Cc3c(Cl)cccc3Cl)c-2n1", "note": "[3-[(2,6-Dichlorophenyl)methyl]-8-methyl-3-hydropurine-6-ylamine]", "values": [{"measurement": "pIC50", "value": "≥ 6.00"}]}, {"smiles": "Nc1ncn(Cc2c(Cl)cccc2Cl)c2nc(-c3ccccc3)nc1-2", "note": "[3-[(2,6-Dichlorophenyl)methyl]-8-phenyl-3-hydropurine-6-ylamine]", "values": [{"measurement": "pIC50", "value": "≥ 6.00"}]}, {"smiles": "CCCc1nc2c(N)ncn(Cc3c(Cl)cccc3Cl)c-2n1", "note": "[3-[(2,6-Dichlorophenyl)methyl]-8-propyl-3-hydropurine-6-ylamine]", "values": [{"measurement": "pIC50", "value": "≥ 6.00"}]}, {"smiles": "Nc1ncn(Cc2c(Cl)cccc2Cl)c2nc(-c3cc[nH]n3)nc1-2", "note": "[3-[(2,6-Dichlorophenyl)methyl]-8-pyrazol-5-yl-3-hydropurine-6-ylamine]", "values": [{"measurement": "pIC50", "value": "≤ 4.70"}]}, {"smiles": "Nc1ncn(Cc2c(Cl)cccc2Cl)c2nc(-c3ccc[nH]3)nc1-2", "note": "[3-[(2,6-Dichlorophenyl)methyl]-8-pyrrol-2-yl-3-hydropurine-6-ylamine]", "values": [{"measurement": "pIC50", "value": "≥ 6.00"}]}, {"smiles": "Nc1ncn(Cc2c(Cl)cccc2Cl)c2nc(C(F)(F)C(F)(F)F)nc1-2", "note": "[3-[(2,6-dichlorophenyl)methyl]-8-(1,1,2,2,2-pentafluoroethyl)-3-hydropurine-6-ylamine]", "values": [{"measurement": "pIC50", "value": "≤ 4.70"}]}, {"smiles": "Nc1ncn(Cc2c(Cl)cccc2Cl)c2nc(-c3ccc(F)c(F)c3F)nc1-2", "note": "[3-[(2,6-dichlorophenyl)methyl]-8-(2,3,4-trifluorophenyl)-3-hydropurine-6-ylamine]", "values": [{"measurement": "pIC50", "value": "≥ 6.00"}]}, {"smiles": "Nc1ncn(Cc2c(Cl)cccc2Cl)c2nc(-c3cccc(F)c3F)nc1-2", "note": "[3-[(2,6-dichlorophenyl)methyl]-8-(2,3-difluorophenyl)-3-hydropurine-6-ylamine]", "values": [{"measurement": "pIC50", "value": "≥ 6.00"}]}, {"smiles": "Nc1ncn(Cc2c(Cl)cccc2Cl)c2nc(-c3cc(F)c(F)cc3F)nc1-2", "note": "[3-[(2,6-dichlorophenyl)methyl]-8-(2,4,5-trifluorophenyl)-3-hydropurine-6-ylamine]", "values": [{"measurement": "pIC50", "value": "≥ 6.00"}]}, {"smiles": "Nc1ncn(Cc2c(Cl)cccc2Cl)c2nc(-c3ccc(F)cc3F)nc1-2", "note": "[3-[(2,6-dichlorophenyl)methyl]-8-(2,4-difluorophenyl)-3-hydropurine-6-ylamine]", "values": [{"measurement": "pIC50", "value": "≥ 6.00"}]}, {"smiles": "Nc1ncn(Cc2c(Cl)cccc2Cl)c2nc(-c3c(F)cccc3F)nc1-2", "note": "[3-[(2,6-dichlorophenyl)methyl]-8-(2,6-difluorophenyl)-3-hydropurine-6-ylamine]", "values": [{"measurement": "pIC50", "value": "≥ 6.00"}]}, {"smiles": "Nc1ncn(Cc2c(Cl)cccc2Cl)c2nc(-c3ccc(F)c(F)c3)nc1-2", "note": "[3-[(2,6-dichlorophenyl)methyl]-8-(3,4-difluorophenyl)-3-hydropurine-6-ylamine]", "values": [{"measurement": "pIC50", "value": "≥ 6.00"}]}, {"smiles": "Nc1ncn(Cc2c(Cl)cccc2Cl)c2nc(C(F)F)nc1-2", "note": "[3-[(2,6-dichlorophenyl)methyl]-8-(difluoromethyl)-3-hydropurine-6-ylamine]", "values": [{"measurement": "pIC50", "value": "4.70 to 6.00"}]}, {"smiles": "Nc1ncn(Cc2c(Cl)cccc2Cl)c2nc(CCc3ccc(F)cc3)nc1-2", "note": "[3-[(2,6-dichlorophenyl)methyl]-8-[2-(4-fluorophenyl)ethyl]-3-hydropurine-6-ylamine]", "values": [{"measurement": "pIC50", "value": "≥ 6.00"}]}, {"smiles": "Cc1ccccc1Cc1nc2c(N)ncn(Cc3c(Cl)cccc3Cl)c-2n1", "note": "[3-[(2,6-dichlorophenyl)methyl]-8-[(2-methylphenyl)methyl]-3-hydropurine-6-ylamine]", "values": [{"measurement": "pIC50", "value": "≥ 6.00"}]}, {"smiles": "Nc1ncn(Cc2c(Cl)cccc2Cl)c2nc(COc3ccc(Br)cc3)nc1-2", "note": "[3-[(2,6-dichlorophenyl)methyl]-8-[(4-bromophenoxy)methyl]-3-hydropurine-6-ylamine]", "values": [{"measurement": "pIC50", "value": "≥ 6.00"}]}, {"smiles": "Nc1ncn(Cc2c(Cl)cccc2Cl)c2nc(Cc3ccc(F)cc3)nc1-2", "note": "[3-[(2,6-dichlorophenyl)methyl]-8-[(4-fluorophenyl)methyl]-3-hydropurine-6-ylamine]", "values": [{"measurement": "pIC50", "value": "≥ 6.00"}]}, {"smiles": "COc1ccc(Cc2nc3c(N)ncn(Cc4c(Cl)cccc4Cl)c-3n2)cc1", "note": "[3-[(2,6-dichlorophenyl)methyl]-8-[(4-methoxyphenyl)methyl]-3-hydropurine-6-ylamine]", "values": [{"measurement": "pIC50", "value": "≥ 6.00"}]}, {"smiles": "Nc1ncn(Cc2c(Cl)cccc2Cl)c2nc(Cc3ccc(C(F)(F)F)cc3)nc1-2", "note": "[3-[(2,6-dichlorophenyl)methyl]-8-{[4-(trifluoromethyl)phenyl]methyl}-3-hydropurine-6-ylamine]", "values": [{"measurement": "pIC50", "value": "≥ 6.00"}]}, {"smiles": "Nc1ncn(Cc2c(Cl)cncc2Cl)c2nc(-c3ccccc3)nc1-2", "note": "[3-[(3,5-Dichloro(4-pyridyl))methyl]-8-phenyl-3-hydropurine-6-ylamine]", "values": [{"measurement": "pIC50", "value": "≥ 6.00"}]}, {"smiles": "Nc1ncn(Cc2c(Br)cncc2Br)c2ncnc1-2", "note": "[3-[(3,5-dibromo-4-pyridyl)methyl]-3-hydropurine-6-ylamine]", "values": [{"measurement": "pIC50", "value": "≥ 6.00"}]}, {"smiles": "Nc1ncn(Cc2ccncc2Cl)c2ncnc1-2", "note": "[3-[(3-chloro-4-pyridyl)methyl]-3-hydropurine-6-ylamine]", "values": [{"measurement": "pIC50", "value": "4.70 to 6.00"}]}, {"smiles": "Cn1ncc(Br)c1Cn1cnc(N)c2ncnc1-2", "note": "[3-[(4-bromo-1-methylpyrazol-5-yl)methyl]-3-hydropurine-6-ylamine]", "values": [{"measurement": "pIC50", "value": "≥ 6.00"}]}, {"smiles": "Nc1ncn(Cc2c(Br)ccnc2Cl)c2ncnc1-2", "note": "[3-[(4-bromo-2-chloro-3-pyridyl)methyl]-3-hydropurine-6-ylamine]", "values": [{"measurement": "pIC50", "value": "4.70 to 6.00"}]}, {"smiles": "Nc1ncn(Cc2c(Cl)ccnc2F)c2ncnc1-2", "note": "[3-[(4-chloro-2-fluoro-3-pyridyl)methyl]-3-hydropurine-6-ylamine]", "values": [{"measurement": "pIC50", "value": "4.70 to 6.00"}]}, {"smiles": "Nc1ncn(Cc2ccccc2)c2ncnc1-2", "note": "[3-benzyl-3-hydropurine-6-ylamine, 3-Benzyl-3-hydropurine-6-ylamine]", "values": [{"measurement": "pIC50", "value": "4.70 to 6.00"}]}, {"smiles": "N#Cc1cccc(-c2nc3c(N)ncn(Cc4c(Cl)cccc4Cl)c-3n2)c1", "note": "[3-{6-Amino-3-[(2,6-dichlorophenyl)methyl]-3-hydropurin-8-yl}benzenecarbonitrile]", "values": [{"measurement": "pIC50", "value": "≥ 6.00"}]}, {"smiles": "CN(C)C(=O)c1ccc(Nc2ncn(Cc3c(Cl)cccc3Cl)c3ncnc2-3)cc1", "note": "[4-((3-(2,6-Dichlorobenzyl)-3H-purin-6-yl)amino)-N,N-dimethylbenzamide]", "values": [{"measurement": "pIC50", "value": "4.70 to 6.00"}]}]}
